In PubChem BioAssay AID1259407 (Chemical Carcinogenesis Research Information System (CCRIS), 2018):
The source made the active and inactive calls. No rule for the calls is given here.

Test system: CCRIS mutagenicity, Ames/micronucleus/aberration tests
Assay: CCRIS mutagenicity studies
[1] = Test System: AMES SALMONELLA TYPHIMURIUM, Strain/Indicator: TA98, Metabolic Activation: HAMSTER, LIVER, S-9, AROCLOR 1254 (10%), Method: PREINCUBATION
[2] = Test System: AMES SALMONELLA TYPHIMURIUM, Strain/Indicator: TA98, Metabolic Activation: NONE, Method: PREINCUBATION
[3] = Test System: AMES SALMONELLA TYPHIMURIUM, Strain/Indicator: TA98, Metabolic Activation: RAT, LIVER, S-9, AROCLOR 1254 (10%), Method: PREINCUBATION
[4] = Test System: AMES SALMONELLA TYPHIMURIUM, Strain/Indicator: TA100, Metabolic Activation: HAMSTER, LIVER, S-9, AROCLOR 1254 (10%), Method: PREINCUBATION
[5] = Test System: AMES SALMONELLA TYPHIMURIUM, Strain/Indicator: TA100, Metabolic Activation: NONE, Method: PREINCUBATION
[6] = Test System: AMES SALMONELLA TYPHIMURIUM, Strain/Indicator: TA100, Metabolic Activation: RAT, LIVER, S-9, AROCLOR 1254 (10%), Method: PREINCUBATION
[7] = Test System: AMES SALMONELLA TYPHIMURIUM, Strain/Indicator: TA1535, Metabolic Activation: HAMSTER, LIVER, S-9, AROCLOR 1254 (10%), Method: PREINCUBATION
[8] = Test System: AMES SALMONELLA TYPHIMURIUM, Strain/Indicator: TA1535, Metabolic Activation: NONE, Method: PREINCUBATION
[9] = Test System: AMES SALMONELLA TYPHIMURIUM, Strain/Indicator: TA1535, Metabolic Activation: RAT, LIVER, S-9, AROCLOR 1254 (10%), Method: PREINCUBATION
[10] = Test System: AMES SALMONELLA TYPHIMURIUM, Strain/Indicator: TA100, Metabolic Activation: RAT, LIVER, S-9, AROCLOR 1254, Method: STANDARD PLATE

## CCN(C(=O)N(CC)c1ccccc1)c1ccccc1
Test System: AMES SALMONELLA TYPHIMURIUM, Strain/Indicator: TA97, Metabolic Activation: HAMSTER, LIVER, S-9, AROCLOR 1254 (10%), Method: PREINCUBATION
  mutagenic call: inactive; negative
Test System: AMES SALMONELLA TYPHIMURIUM, Strain/Indicator: TA97, Metabolic Activation: HAMSTER, LIVER, S-9, AROCLOR 1254 (30%), Method: PREINCUBATION
  mutagenic call: inactive; negative
Test System: AMES SALMONELLA TYPHIMURIUM, Strain/Indicator: TA97, Metabolic Activation: NONE, Method: PREINCUBATION
  mutagenic call: inactive; negative
Test System: AMES SALMONELLA TYPHIMURIUM, Strain/Indicator: TA97, Metabolic Activation: RAT, LIVER, S-9, AROCLOR 1254 (10%), Method: PREINCUBATION
  mutagenic call: inactive; negative
Test System: AMES SALMONELLA TYPHIMURIUM, Strain/Indicator: TA97, Metabolic Activation: RAT, LIVER, S-9, AROCLOR 1254 (30%), Method: PREINCUBATION
  mutagenic call: inactive; negative
[1]
  mutagenic call: inactive; negative
Test System: AMES SALMONELLA TYPHIMURIUM, Strain/Indicator: TA98, Metabolic Activation: HAMSTER, LIVER, S-9, AROCLOR 1254 (30%), Method: PREINCUBATION
  mutagenic call: inactive; negative
[2]
  mutagenic call: inactive; negative
[3]
  mutagenic call: inactive; negative
Test System: AMES SALMONELLA TYPHIMURIUM, Strain/Indicator: TA98, Metabolic Activation: RAT, LIVER, S-9, AROCLOR 1254 (30%), Method: PREINCUBATION
  mutagenic call: inactive; negative
[4]
  mutagenic call: inactive; negative
Test System: AMES SALMONELLA TYPHIMURIUM, Strain/Indicator: TA100, Metabolic Activation: HAMSTER, LIVER, S-9, AROCLOR 1254 (30%), Method: PREINCUBATION
  mutagenic call: inactive; negative
[5]
  mutagenic call: inactive; negative
[6]
  mutagenic call: inactive; negative
Test System: AMES SALMONELLA TYPHIMURIUM, Strain/Indicator: TA100, Metabolic Activation: RAT, LIVER, S-9, AROCLOR 1254 (30%), Method: PREINCUBATION
  mutagenic call: inactive; negative
[7]
  mutagenic call: inactive; negative
Test System: AMES SALMONELLA TYPHIMURIUM, Strain/Indicator: TA1535, Metabolic Activation: HAMSTER, LIVER, S-9, AROCLOR 1254 (30%), Method: PREINCUBATION
  mutagenic call: inactive; negative
[8]
  mutagenic call: inactive; negative
[9]
  mutagenic call: inactive; negative
Test System: AMES SALMONELLA TYPHIMURIUM, Strain/Indicator: TA1535, Metabolic Activation: RAT, LIVER, S-9, AROCLOR 1254 (30%), Method: PREINCUBATION
  mutagenic call: inactive; negative

## CO[C@@H]1[C@H](C)O[C@@H](O[C@@H]2C[C@H](Oc3cc(O)c4c(O)c5c(cc4c3)C[C@@H]([C@H](OC)C(=O)[C@@H](O)[C@@H](C)O)[C@H](O[C@@H]3C[C@H](OC4C[C@H](O)[C@@H](O)[C@H](C)O4)[C@@H](O)[C@H](C)O3)C5=O)O[C@H](C)[C@@H]2O)C[C@@H]1O (stereo not given in full)
Test System: CHINESE HAMSTER OVARY, Strain/Indicator: CHO (HGPRT)/6-THIOGUANINE, Metabolic Activation: NONE, Method: PREINCUBATION
  mutagenic call: active; positive

## NC(=O)CC1CO1 (stereo not given)
[5]
  mutagenic call: active; positive
Test System: AMES SALMONELLA TYPHIMURIUM, Strain/Indicator: TA100, Metabolic Activation: NONE, Method: STANDARD PLATE
  mutagenic call: active; positive
Test System: AMES SALMONELLA TYPHIMURIUM, Strain/Indicator: TA100, Metabolic Activation: RAT, LIVER, S-9, AROCLOR 1254, Method: PREINCUBATION
  mutagenic call: active; positive
[10]
  mutagenic call: active; positive

## COC(=O)c1ccccc1C(=O)OC
End Point: IN VITRO CHROMOSOMAL ABERRATIONS, Test System: CHO-LB CELLS, Metabolic Activation: NONE
  mutagenic call: inactive; negative
End Point: IN VITRO CHROMOSOMAL ABERRATIONS, Test System: CHO-LB CELLS, Metabolic Activation: RAT, LIVER, S-9, AROCLOR 1254
  mutagenic call: inactive; negative
[1]
  mutagenic call: inactive; negative
[2]
  mutagenic call: inactive; negative
[3]
  mutagenic call: inactive; negative
[4]
  mutagenic call: inactive; negative
[5]
  mutagenic call: inactive; negative
[6]
  mutagenic call: inactive; negative
[10]
  mutagenic call: inactive; negative
Test System: AMES SALMONELLA TYPHIMURIUM, Strain/Indicator: TA100, Metabolic Activation: S-9, Method: STANDARD PLATE
  mutagenic call: inactive; negative
[7]
  mutagenic call: inactive; negative
[8]
  mutagenic call: inactive; negative
Test System: AMES SALMONELLA TYPHIMURIUM, Strain/Indicator: TA1535, Metabolic Activation: NONE, Method: STANDARD PLATE
  mutagenic call: inactive; negative
[9]
  mutagenic call: inactive; negative
Test System: AMES SALMONELLA TYPHIMURIUM, Strain/Indicator: TA1535, Metabolic Activation: S-9, Method: STANDARD PLATE
  mutagenic call: inactive; negative
Test System: AMES SALMONELLA TYPHIMURIUM, Strain/Indicator: TA1537, Metabolic Activation: HAMSTER, LIVER, S-9, AROCLOR 1254 (10%), Method: PREINCUBATION
  mutagenic call: inactive; negative
Test System: AMES SALMONELLA TYPHIMURIUM, Strain/Indicator: TA1537, Metabolic Activation: NONE, Method: PREINCUBATION
  mutagenic call: inactive; negative
Test System: AMES SALMONELLA TYPHIMURIUM, Strain/Indicator: TA1537, Metabolic Activation: RAT, LIVER, S-9, AROCLOR 1254 (10%), Method: PREINCUBATION
  mutagenic call: inactive; negative
Test System: MOUSE LYMPHOMA, Strain/Indicator: L5178Y (TK+/TK-), Metabolic Activation: NONE, Method: SUSPENSION/PLATE
  mutagenic call: inactive; negative
Test System: MOUSE LYMPHOMA, Strain/Indicator: L5178Y (TK+/TK-), Metabolic Activation: RAT LIVER S-9, Method: SUSPENSION/PLATE
  mutagenic call: active; positive
